# Where two headings read alike, the source gives them in different places.
# What was measured:
# [1] = test system: P. berghei ANKA liver stages; assay: Liver stage susceptibility, luciferase-based assay (PbLuc sporozoites in HepG2); type: cell-based; settings: Plasmodium berghei
# Experimental: P. berghei ANKA infections were maintained in BALB/c female mice (The Jackson Laboratory) infected via intraperitoneal injection of 2×10^7 blood stage parasites. Infected mice were provided water ad libitum and housed in standard cages in an animal facility room maintained at 22°C and 50-70% relative humidity. Anopheles stephensi mosquitoes were housed in an insectary maintained at 27°C, 80% humidity and a 12:12 light:dark schedule. […] 24 h before infection, 384-well plates (Greiner Bio) were seeded with 1x10^4 HepG2-A16-CD81^EGFP cells in 30 μL of assay medium (DMEM without Phenol Red (Life Technologies, CA), 5% FBS and 5x Pen-Strep Glutamine (Life Technologies, CA)). Luciferase-expressing Pb (PbLuc) sporozoites were freshly obtained by dissecting salivary glands of infected Anopheles stephensi mosquitoes and 5x10^3 sporozoites in 30 μL were added to each well. Plates were centrifuged for 5 min at 330g and incubated for 2 h at 37°C and 5% CO2. Unbound sporozoites were then removed by centrifugation and washing and 30 μL of fresh medium was added. […] Luminescence was measured using an Envision Multilabel Reader (PerkinElmer) to assess parasite growth as a function of compound concentrations.
# [2] = test system: Pf ABS parasites; assay: Light microscopy of ABS development; type: cell-based, Plasmodium falciparum; settings: ring-stage parasites exposed to 350 nM (approximately 3 × IC50)
# [3] = test system: sel. Dd2-B2 TKL3T1268R; assay: 72-h ABS assay, MMV030084-selected line; type: cell-based, Plasmodium falciparum; settings: Plasmodium falciparum
# Experimental: (§1) Synchronicity was achieved using three rounds of sorbitol treatment on early rings, spaced 48 h apart, followed by magnetic purification of segmented schizonts following the final sorbitol treatment. Parasites were highly synchronous to within a 3 h window of development. Assays were repeated on at least three independent occasions (each with technical duplicates) and statistical significance was assessed using Mann Whitney U tests.
# (§2) The resulting MMV030084-resistant parasites were cloned by limiting dilution ([Baker et al., 2017]) to obtain genetically homogenous cultures for further phenotyping and whole-genome sequencing. A second round of […]. […] Drug susceptibility of resistant lines was assessed using a 72 h ABS assay as described above, and a Mann Whitney U test was applied to assess statistically significant differences.
# [4] = test system: ed. Dd2-B2 TKL3I1250M; assay: 72-h ABS assay, CRISPR/Cas9-edited line; type: cell-based; settings: Plasmodium falciparum, parent Dd2-B2 wild-type
# Experimental: as §1, §2
# (§3) A CRISPR/Cas9 targeted gene editing strategy using an all-in-one plasmid approach was applied to introduce T1268R, I1250M and T1268R+I1250M in wild-type Dd2-B2 parasites or to produce a TKL3 KO line by inserting a stop codon and frameshift at amino acid position 1268. […] WR99210 (2.5 nM) was added to the culture medium 24 h after electroporation to select for successfully transfected parasites and was maintained in the medium until edited parasites were detected. […]
# [5] = test system: ed. Dd2-B2 TKL3T1268R; assay: 72-h ABS assay, CRISPR/Cas9-edited line; type: cell-based; settings: Plasmodium falciparum, parent Dd2-B2 wild-type
# Experimental: as §1, §2, §3
# [6] = test system: ed. Dd2-B2 TKL3KO; assay: 72-h ABS assay, TKL3 knockout line; type: cell-based; settings: Plasmodium falciparum, parent Dd2-B2 wild-type
# Experimental: as §1, §2, §3
# [7] = test system: Dd2-B2 TKL3KO parasites with PP1 H237D/V249L or URP E20* mutations; assay: 72-h ABS assay, lines pulse-selected from ed. Dd2-B2 TKL3KO; type: cell-based; settings: Plasmodium falciparum, parent ed. Dd2-B2 TKL3KO
# Experimental: as §1, §2
# [8] = test system: NF54 CDPK1T145M mutant line; assay: ABS susceptibility, CDPK1 gatekeeper mutant line; type: cell-based; settings: Plasmodium falciparum, NF54, read-out: Mean IC50
# Experimental: as §1
# [9] = target: T1, cGMP-dependent protein kinase (PKG) (PF3D7_1436600) (Plasmodium falciparum, UniProt Q8I719); assay: Competitive chemoproteomics in Pf lysates (Kinobeads / bead-immobilized compound); type: binding; settings: lysates exposed to 40 μM of the same compound vs vehicle
# T1 construct: The beads were incubated at 4°C for 1 h with either 0.1 ml (0.3 mg) Pf blood stage extract; endogenous in cells; host or cells: P. falciparum asexual blood-stage parasites (trophozoite stage), saponin-freed and lysed
# T1 sequence (Q8I719 whole entry): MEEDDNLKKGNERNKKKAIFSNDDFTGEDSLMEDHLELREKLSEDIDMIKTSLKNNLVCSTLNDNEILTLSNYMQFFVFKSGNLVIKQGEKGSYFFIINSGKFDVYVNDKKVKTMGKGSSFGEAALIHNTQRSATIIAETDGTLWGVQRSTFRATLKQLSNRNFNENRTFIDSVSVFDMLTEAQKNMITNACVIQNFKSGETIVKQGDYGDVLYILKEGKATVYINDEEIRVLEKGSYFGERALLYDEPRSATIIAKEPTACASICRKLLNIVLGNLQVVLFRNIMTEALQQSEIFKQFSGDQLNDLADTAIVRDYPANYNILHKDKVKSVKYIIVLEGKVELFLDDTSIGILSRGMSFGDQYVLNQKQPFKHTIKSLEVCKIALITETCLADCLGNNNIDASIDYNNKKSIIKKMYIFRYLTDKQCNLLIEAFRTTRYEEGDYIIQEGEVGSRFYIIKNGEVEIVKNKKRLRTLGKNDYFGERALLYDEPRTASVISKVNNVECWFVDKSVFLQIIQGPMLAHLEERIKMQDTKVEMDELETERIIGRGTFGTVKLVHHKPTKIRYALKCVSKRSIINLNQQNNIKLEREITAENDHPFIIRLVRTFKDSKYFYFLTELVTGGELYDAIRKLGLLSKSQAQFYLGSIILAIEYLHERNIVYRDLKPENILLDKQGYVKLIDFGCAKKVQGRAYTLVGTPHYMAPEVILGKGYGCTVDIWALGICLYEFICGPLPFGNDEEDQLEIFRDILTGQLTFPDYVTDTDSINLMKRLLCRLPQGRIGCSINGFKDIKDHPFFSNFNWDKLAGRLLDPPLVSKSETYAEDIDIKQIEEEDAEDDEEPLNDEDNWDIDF
# Experimental: Parasite cultures at the trophozoite stage were harvested, washed twice in RPMI 1640 medium (Gibco), and lysed by the addition of saponin to a final concentration of 0.1% for 5 min at room temperature. Free parasites were sedimented by centrifugation (3500 rpm for 10 min), washed three times with phosphate-buffered saline, and stored at −80°C. Parasites were resuspended in cell lysis buffer (50 mM tris-HCl (pH 7.5), 5% glycerol, 1.5 mM MgCl2, 1.5 mM NaCl, 1 mM Na3PO4, 25 mM sodium fluoride, 0.8% NP-40, EDTA-free protease inhibitor cocktail tablets (Roche Diagnostics), and 1 mM DTT) and disrupted by sonication (Sonics Vibra-Cell) using two 30-s cycles on ice at half-amplitude. […]
# Kinobeads were prepared by immobilizing Bis-(III) indolyl-maleimide, purvalanol B, staurosporine and CZC8004, and the analogs of PD173955, sunitinib and vandetanib on NHS-activated Sepharose 4 beads (Amersham) ([Bantscheff et al., 2007]). […] 10 samples were measured in parallel (TMT 10-plex ([Werner et al., 2014])) to generate values for the affinity of the beads to the bound proteins (“depletion” values, 4 samples) and to generate IC50 values (6 samples) in a single experiment. Apparent dissociation constants were determined after accounting for protein depletion by the beads ([Bantscheff et al., 2011]). […]
# [10] = test system: Dd2-B2 and ed. Dd2-B2 TKL3KO parasites; assay: In vitro selections for MMV030084 resistance; type: cell-based, Plasmodium falciparum; settings: 1 × 10^9 Dd2-B2 TKL3KO parasites, 1,100 nM
# Experimental: as §2
# [11] = test system: ed. Dd2-B2 TKL3I1250M+T1268R; assay: 72-h ABS assay, CRISPR/Cas9-edited double-mutant line; type: cell-based; settings: Plasmodium falciparum, parent Dd2-B2 wild-type
# Source text: Supplement mmc2.xlsx, sheet "Table S1 (I)" | column: Mean IC50
# [12] = in vitro; settings: human
compound,measurement,setting,value
CC(C)(CN)c1nc(-c2ccc(Cl)c(O)c2)c(-c2ccncc2)[nH]1 [MMV030084],IC50,"[1]; HepG2, compound added 2 h after infection, read-out: IC50, liver stage, post-invasion exposure",> 10000 nM
same,IC50,"[1]; luciferase-expressing Pb parasites, host HepG2 liver cells, pre-invasion exposure, read-out: IC50, liver stage",199 nM
same,ABS development by light microscopy,[2],halted at the schizont stage
same,IC50,[3],355 nM
same,IC50,[4],307 nM
same,IC50,[5],317 nM
same,IC50,[6],376 nM
same,IC50,"[7]; DD2, Line sel. Dd2-B2 TKL3KO + PP1H237D",621 nM
same,IC50,"[7]; DD2, Line sel. Dd2-B2 TKL3KO + PP1V249L",549 nM
same,IC50,"[7]; DD2, Line sel. Dd2-B2 TKL3KO + URPE20*",819 nM
same,IC50,[8],90 nM
same,PKG pull-down by bead-bound compound,[9],pulled down
same,Parasite recrudescence under continuous exposure,[10],did not result in parasite recrudescence
same,IC50,[11],347 nM
same,CC50,[12],41500 nM

# Reference: PMC7369637, “Inhibition of Resistance-Refractory P. falciparum Kinase PKG Delivers Prophylactic, Blood Stage, and Transmission-Blocking Antiplasmodial Activity” (Cell Chemical Biology, 2020)
